Experimental data reported in patent US12083181B2, “Bi-functional molecules to degrade circulating proteins” (Yale University, priority 2018, dated 2024).

Key:
[1] = tested on: PC3 human prostate cancer cells; assay: Mouse model of prostate cancer, tumor growth; type: in vivo; details: nude mice engrafted with PC3 cells, treatment initiated immediately
Text: In this experiment, nude mice were engrafted with PC3 human prostate cancer cells. Treatment was then initiated immediately with either a non-bifunctional MIF inhibitor (3w), an anti-MIF antibody, or MIF-GN3.

[2] = biological target: T1, rhuMIF (Homo sapiens, UniProt P14174); assay: Trafficking of MIF internalized by HepG2 cells to lysosomes, immunofluorescence; type: cell-based; set-up: purchased Cayman Chemical; details: 100 nM rhuMIF, 200 nM compound, 12 hours
T1 sequence (P14174 2-115 limits assumed): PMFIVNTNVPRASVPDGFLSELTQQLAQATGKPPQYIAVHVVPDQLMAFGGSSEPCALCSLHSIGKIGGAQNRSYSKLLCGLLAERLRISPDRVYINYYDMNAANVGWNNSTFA
Procedure: In this experiment, cells were incubated with rhuMIF (Cayman) at a concentration of 100 nM with 200 nM MIF-GN3.

[3] = biological target: T1, rhuMIF; assay: Depletion of injected human MIF from mice, serum sandwich ELISA; type: in vivo; details: nude mice injected with 5 μg recombinant human MIF
Procedure: Human MIF has a half-life of approximately 40 minutes in mice. In this experiment, human recombinant MIF (Cayman chemical) was co-injected into mice with an anti-DNP IgG, which was used as an injection positive control. In particular, nude mice were injected with 5 μg recombinant human MIF and 200 μg anti-DNP IgG as an injection control (FIG. 4). MIF-GN3 was then injected at the concentration shown and blood drawn every twenty minutes over the course of two hours. Serum was diluted 1:100 and analyzed for MIF content by sandwich ELISA (biolegend monoclonal anti-MIF and biotinylated anti-MIF antibodies).

[4] = biological target: T1, rhuMIF; assay: Depletion of human MIF from supernatant of cultured HepG2 cells, sandwich ELISA; type: cell-based; details: 100 nM huMIF, after 24 hours
Procedure: In an experiment the results of which are presented in FIG. 3, bifunctional molecules were able to deplete human MIF from the supernatant of culture HepG2 cells. Briefly, human MIF (100 nM) was added to cell culture media in the presence of negative control MIF inhibitor 3w as well as bifunctional molecules MIF-NVS-PEGn-GN3, MIF-GN3, MIF-PEGn-Gn3, MIF-AcF3-1, MIF-AcF3-2, and MIF-AcF3-3. All molecules utilized a known MIF-binding ligand. Experiments were performed in 96 well plates (approximate surface area 0.3 cm^2). HepG2 cells were grown to 90% confluency in RPMI media, then washed with PBS (2×) and treated with serum-free media (optimem+0.1% BSA, +Pen/Strep) containing 100 nM huMIF (Cayman Chemical) and compounds (when applicable). Compounds were diluted from 1 mM stock solutions in DMSO. After 24 hours, a sample of the supernatant (2 uL) was collected, diluted 1:100, and analyzed for MIF content by sandwich ELISA (and incubated for 24 hours in the presence or absence of compound). Remaining MIF levels were determined by sandwich ELISA (biolegend monoclonal anti-MIF and biotinylated anti-MIF antibodies). Data represents the average of at least 3 biological replicates, and error bars represent a standard deviation. After 24 hours, up to 95.3% of the MIF had been depleted from cell culture media (in the case of MIF-AcF3-3).

Compound	tumor growth [1]	trafficking of internalized MIF to lysosomes [2]	serum huMIF levels ([3]; blood drawn over two hours, PBS control up to 150 ng/ml)	decrease in huMIF levels ([3]; versus PBS)	MIF depleted from cell culture media [4] [%]
CC(=O)N[C@H]1[C@H](OCCOCCOCCNC(=O)CCOCC(COCCC(=O)NCCOCCOCCO[C@@H]2O[C@H](CO)[C@H](O)[C@H](O)[C@H]2NC(C)=O)(COCCC(=O)NCCOCCOCCO[C@@H]2O[C@H](CO)[C@H](O)[C@H](O)[C@H]2NC(C)=O)NC(=O)CNC(=O)CCCOc2ccc3nc(-c4cn(-c5ccc(O)c(F)c5)nn4)ccc3c2)O[C@H](CO)[C@H](O)[C@@H]1O [MIF-GN3]	showed a slowing of tumor growth	evidencing internalization in lysosomes	up to 20 ng/ml	substantial decrease in huMIF levels	–
O=C(CCOCC(COCCC(=O)NCCOCCOCCOCCOC[C@@]12CO[C@@H](O1)[C@H](NC(=O)C(F)(F)F)[C@@H](O)[C@H]2O)(COCCC(=O)NCCOCCOCCOCCOC[C@@]12CO[C@@H](O1)[C@H](NC(=O)C(F)(F)F)[C@@H](O)[C@H]2O)NC(=O)CCCOc1ccc2nc(-c3cn(-c4ccc(O)c(F)c4)nn3)ccc2c1)NCCOCCOCCOCCOC[C@@]12CO[C@@H](O1)[C@H](NC(=O)C(F)(F)F)[C@@H](O)[C@H]2O [MIF-AcF3-3]	–	–	–	–	95.3
